The record followed here is article PMC4423559 (Angewandte Chemie (International ed. in English), 2015).

Molecules are shown by their SMILES.

This test has as its target T1, GTP/GDP carrier (GGC) from yeast mitochondria (Saccharomyces cerevisiae, UniProt P38988).
T1 sequence (P38988 1-300): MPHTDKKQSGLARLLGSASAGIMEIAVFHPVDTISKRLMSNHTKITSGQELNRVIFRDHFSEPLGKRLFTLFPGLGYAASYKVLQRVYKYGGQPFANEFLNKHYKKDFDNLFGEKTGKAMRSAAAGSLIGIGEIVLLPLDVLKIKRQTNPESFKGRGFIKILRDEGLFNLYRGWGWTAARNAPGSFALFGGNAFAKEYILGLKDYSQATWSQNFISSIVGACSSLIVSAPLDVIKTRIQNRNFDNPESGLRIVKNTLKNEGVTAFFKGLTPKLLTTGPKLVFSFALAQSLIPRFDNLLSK
Nature of the test: NMR chemical shift perturbation titration, 3D TROSY HNCO. It counts as binding.

By Kd is commonly meant the free concentration of one partner at which half of the binding sites on the other are occupied at equilibrium, for simple one-to-one binding.

Take `Nc1nc2c(ncn2[C@@H]2O[C@H](COP(=O)(O)OP(=O)(O)O)[C@@H](O)[C@H]2O)c(=O)[nH]1` [GDP]: the Kd was 23 mM. Turning to `Nc1nc2c(ncn2[C@@H]2O[C@H](COP(=O)(O)OP(=O)(O)OP(=O)(O)O)[C@@H](O)[C@H]2O)c(=O)[nH]1` [GTP], the Kd was 6.6 mM.
